PubChem BioAssay (NCI)
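Compound exposure: 48 hours, 5 concentrations, 96-well plates. Here, GI50 denotes the concentration required for 50% inhibition of growth. TGI: total growth inhibition.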

Key:
Assay in all cases: inhibition of tumour cell growth, NCI panel, 48 h
[1] = tested on: HOP-92 NSCLC
[2] = tested on: OVCAR-8 ovarian
[3] = tested on: MDA-MB-231 breast
[4] = tested on: RXF 393 renal
[5] = tested on: BT-549 breast
[6] = tested on: SK-MEL-2 melanoma
[7] = tested on: K-562 leukemia
[8] = tested on: HCT-15 colon
[9] = tested on: HOP-62 NSCLC
[10] = tested on: OVCAR-5 ovarian
[11] = tested on: MDA-MB-435
[12] = tested on: 786-0 renal
[13] = tested on: HS 578T breast
[14] = tested on: HL-60(TB) leukemia
[15] = tested on: DU-145 prostate
[16] = tested on: NCI-H460 lung
[17] = tested on: HCC-2998 colon
[18] = tested on: M14 melanoma
[19] = tested on: UACC-62 melanoma
[20] = tested on: SF-268 CNS
[21] = tested on: UO-31 renal
[22] = tested on: A549 NSCLC
[23] = tested on: HCT-116 colon
[24] = tested on: COLO 205 colon
[25] = tested on: PC-3 prostate
[26] = tested on: NCI-H522 lung
[27] = tested on: EKVX NSCLC
[28] = tested on: SF-539 CNS
[29] = tested on: RPMI-8226 leukemia
[30] = tested on: SN12C renal
[31] = tested on: CCRF-CEM leukemia
[32] = tested on: OVCAR-4 ovarian
[33] = tested on: LOX IMVI melanoma
[34] = tested on: SK-OV-3 ovarian
[35] = tested on: NCI-H23 lung
[36] = tested on: IGROV1 ovarian
[37] = tested on: UACC-257 melanoma
[38] = tested on: T-47D breast
[39] = tested on: SF-295 CNS
[40] = tested on: NCI-H226 lung
[41] = tested on: OVCAR-3 ovarian
[42] = tested on: HT29 colon
[43] = tested on: SK-MEL-28 melanoma
[44] = tested on: SK-MEL-5 melanoma
[45] = tested on: SNB-19 CNS
[46] = tested on: SNB-75 CNS
[47] = tested on: KM12 colon
[48] = tested on: U251 CNS
[49] = tested on: ACHN renal
[50] = tested on: NCI/ADR-RES ovarian
[51] = tested on: A498 renal
[52] = tested on: MCF7 breast
[53] = tested on: MALME-3M melanoma
[54] = tested on: TK-10 renal
[55] = tested on: SW-620 colon
[56] = tested on: MOLT-4 leukemia

With Cn1c2c(c3ccc(-c4ccn[nH]4)cc3c1=O)C(=O)c1ccccc1-2 the GI50 [1] was 2840 nM, the TGI [1] was 9930 nM and the GI50 [2] was 1780 nM. The TGI [2] was 34600 nM, the GI50 [3] was 4460 nM and the TGI [3] was 64700 nM. It also gave a GI50 [4] of 3610 nM, a TGI [4] greater than 100000 nM and a GI50 [5] of 2290 nM. The TGI [5] was 8780 nM, the GI50 [6] was greater than 100000 nM and the TGI [6] was greater than 100000 nM. It also gave a GI50 [7] of 2170 nM, a TGI [7] greater than 100000 nM and a GI50 [8] of 1510 nM. For the same compound, the TGI [8] was greater than 100000 nM, the GI50 [9] was 1920 nM and the TGI [9] was 9890 nM. The GI50 [10] was 5080 nM, the TGI [10] was greater than 100000 nM and the GI50 [11] was 7510 nM. The TGI [11] was greater than 100000 nM, the GI50 [12] was 1490 nM and the TGI [12] was 4460 nM. It also gave a GI50 [13] of 6840 nM, a TGI [13] greater than 100000 nM and a GI50 [14] of 813 nM. The TGI [14] was 5530 nM, the GI50 [15] was 1710 nM and the TGI [15] was greater than 100000 nM. For the same compound, the GI50 [16] was 494 nM, the TGI [16] was 3370 nM and the GI50 [17] was 11600 nM. It also gave a TGI [17] greater than 100000 nM, a GI50 [18] of 3600 nM and a TGI [18] greater than 100000 nM. It also gave a GI50 [19] of 3100 nM, a TGI [19] greater than 100000 nM and a GI50 [20] of 3210 nM. For the same compound, the TGI [20] was greater than 100000 nM, the GI50 [21] was 1500 nM and the TGI [21] was greater than 100000 nM. For the same compound, the GI50 [22] was 1030 nM, the TGI [22] was 3040 nM and the GI50 [23] was 1520 nM. For the same compound, the TGI [23] was 19000 nM, the GI50 [24] was 5510 nM and the TGI [24] was greater than 100000 nM. For the same compound, the GI50 [25] was 4280 nM, the TGI [25] was greater than 100000 nM and the GI50 [26] was 2220 nM. It also gave a TGI [26] of 23800 nM, a GI50 [27] of 2950 nM and a TGI [27] greater than 100000 nM. For the same compound, the GI50 [28] was 2280 nM, the TGI [28] was 11400 nM and the GI50 [29] was 1770 nM. It also gave a TGI [29] of 4790 nM, a GI50 [30] of 2100 nM and a TGI [30] of 8860 nM. The GI50 [31] was 832 nM, the TGI [31] was greater than 100000 nM and the GI50 [32] was 7650 nM. It also gave a TGI [32] greater than 100000 nM, a GI50 [33] of 1060 nM and a TGI [33] of 4780 nM. The GI50 [34] was 5210 nM, the TGI [34] was greater than 100000 nM and the GI50 [35] was 2640 nM. It also gave a TGI [35] greater than 100000 nM, a GI50 [36] of 2180 nM and a TGI [36] greater than 100000 nM. The GI50 [37] was 7790 nM, the TGI [37] was greater than 100000 nM and the GI50 [38] was 2860 nM. For the same compound, the TGI [38] was greater than 100000 nM, the GI50 [39] was 3810 nM and the TGI [39] was greater than 100000 nM. The GI50 [40] was 1830 nM, the TGI [40] was 5390 nM and the GI50 [41] was 5970 nM. The TGI [41] was 76300 nM, the GI50 [42] was 1520 nM and the TGI [42] was 4850 nM. It also gave a GI50 [43] of 42500 nM, a TGI [43] greater than 100000 nM and a GI50 [44] of 1760 nM. It also gave a TGI [44] of 5680 nM, a GI50 [45] of 2710 nM and a TGI [45] of 17300 nM. It also gave a GI50 [46] of 6180 nM, a TGI [46] greater than 100000 nM and a GI50 [47] of 2340 nM. It also gave a TGI [47] greater than 100000 nM, a GI50 [48] of 1660 nM and a TGI [48] of 10500 nM. The GI50 [49] was 1340 nM, the TGI [49] was 5780 nM and the GI50 [50] was 3780 nM. It also gave a TGI [50] greater than 100000 nM, a GI50 [51] of 6440 nM and a TGI [51] greater than 100000 nM. For the same compound, the GI50 [52] was 408 nM, the TGI [52] was greater than 100000 nM and the GI50 [53] was 4210 nM. It also gave a TGI [53] greater than 100000 nM, a GI50 [54] of 4020 nM and a TGI [54] of 68600 nM. It also gave a GI50 [55] of 2150 nM and a TGI [55] greater than 100000 nM.
CN1CCN(c2ccc(N3Cc4ccccc4OC4=C3C(=O)c3c(O)ccc(O)c3C4=O)cn2)CC1 was tested, and the GI50 [1] was 230 nM, the TGI [1] was 499 nM and the GI50 [2] was 370 nM. The TGI [2] was 4570 nM, the GI50 [3] was 275 nM and the TGI [3] was 706 nM. It also gave a GI50 [4] of 164 nM, a TGI [4] of 346 nM and a GI50 [5] of 251 nM. For the same compound, the TGI [5] was 723 nM, the GI50 [6] was 738 nM and the TGI [6] was 2230 nM. It also gave a GI50 [7] of 71.3 nM, a TGI [7] of 2530 nM and a GI50 [8] of 186 nM. The TGI [8] was 638 nM, the GI50 [9] was 1550 nM and the TGI [9] was 4880 nM. For the same compound, the GI50 [10] was 692 nM, the TGI [10] was 1950 nM and the GI50 [11] was 234 nM. It also gave a TGI [11] of 575 nM, a GI50 [12] of 191 nM and a TGI [12] of 404 nM. It also gave a GI50 [13] of 876 nM, a TGI [13] greater than 100000 nM and a GI50 [14] of 135 nM. For the same compound, the TGI [14] was 445 nM, the GI50 [15] was 360 nM and the TGI [15] was 1290 nM. It also gave a GI50 [16] of 1170 nM, a TGI [16] of 3830 nM and a GI50 [17] of 1280 nM. The TGI [17] was 2780 nM, the GI50 [18] was 244 nM and the TGI [18] was 651 nM. It also gave a GI50 [19] of 330 nM, a TGI [19] of 1040 nM and a GI50 [20] of 580 nM. It also gave a TGI [20] of 2430 nM, a GI50 [21] of 163 nM and a TGI [21] of 557 nM. It also gave a GI50 [22] of 2180 nM, a TGI [22] of 6730 nM and a GI50 [23] of 113 nM. It also gave a TGI [23] of 326 nM, a GI50 [24] of 126 nM and a TGI [24] of 302 nM. The GI50 [25] was 385 nM, the TGI [25] was 1630 nM and the GI50 [26] was 32.2 nM. It also gave a TGI [26] of 134 nM, a GI50 [27] of 244 nM and a TGI [27] of 1240 nM. The GI50 [28] was 233 nM, the TGI [28] was 595 nM and the GI50 [29] was 260 nM. It also gave a TGI [29] of 901 nM, a GI50 [30] of 316 nM and a TGI [30] of 1100 nM. It also gave a GI50 [31] of 97.2 nM, a TGI [31] greater than 33500 nM and a GI50 [32] of 264 nM. For the same compound, the TGI [32] was 855 nM, the GI50 [33] was 215 nM and the TGI [33] was 618 nM. For the same compound, the GI50 [34] was 2920 nM, the TGI [34] was 11400 nM and the GI50 [36] was 272 nM. The TGI [36] was 1010 nM, the GI50 [37] was 426 nM and the TGI [37] was 1170 nM. The GI50 [38] was 184 nM, the TGI [38] was 706 nM and the GI50 [39] was 1870 nM. It also gave a TGI [39] of 5000 nM, a GI50 [40] of 2260 nM and a TGI [40] of 12000 nM. The GI50 [41] was 167 nM, the TGI [41] was 469 nM and the GI50 [56] was 89.5 nM. It also gave a TGI [56] of 5380 nM, a GI50 [42] of 209 nM and a TGI [42] of 562 nM. For the same compound, the GI50 [43] was 282 nM, the TGI [43] was 762 nM and the GI50 [44] was 1270 nM. It also gave a TGI [44] of 2750 nM, a GI50 [45] of 742 nM and a TGI [45] of 2570 nM. It also gave a GI50 [46] of 907 nM, a TGI [46] of 5400 nM and a GI50 [47] of 1180 nM. It also gave a TGI [47] of 3600 nM, a GI50 [48] of 397 nM and a TGI [48] of 1590 nM. The GI50 [49] was 57.4 nM, the TGI [49] was 203 nM and the GI50 [50] was 403 nM. For the same compound, the TGI [50] was greater than 100000 nM, the GI50 [51] was 2150 nM and the TGI [51] was 4940 nM. For the same compound, the GI50 [52] was 149 nM, the TGI [52] was 585 nM and the GI50 [53] was 89.3 nM. The TGI [53] was 298 nM, the GI50 [54] was 260 nM and the TGI [54] was 825 nM. For the same compound, the GI50 [55] was 196 nM and the TGI [55] was 635 nM.
